Reference: patent US20240008487A1, “FUNGICIDAL COMPOSITIONS” (SYNGENTA CROP PROTECTION AG, priority 2020, published 2024)

Legend:
Conditions in all cases: alone
[1] = tested on: Glomerella lagenarium syn. Colletotrichum lagenarium; assay: Glomerella lagenarium syn. Colletotrichum lagenarium (Anthracnose) liquid culture growth inhibition; assay type: cell-based
Protocol: Conidia of the fungus from cryogenic storage were directly mixed into nutrient broth (PDB potato dextrose broth). A DMSO solution of the test compounds was placed into a microtiter plate (96-well format) and the nutrient broth containing the fungal spores was added to it. The test plates were incubated at 24 C and the inhibition of growth was determined photometrically after 72 hrs at 620 nm.

Septoria tritici = Septoria tritici (Leaf Blotch) liquid culture growth inhibition; assay type: cell-based
Protocol: (§1) Conidia of the fungus from cryogenic storage were directly mixed into nutrient broth (PDB potato dextrose broth). A DMSO solution of the test compounds was placed into a microtiter plate (96-well format) and the nutrient broth containing the fungal spores was added to it. The test plates were incubated at 24 C and the inhibition of growth was determined photometrically after 72 hrs.

Phakopsora pachyrhizi = Phakopsora pachyrhizi (Soybean Rust) on leaf disks of treated soybean plants; assay type: in vivo
Protocol: Whole soybean plants are treated with the recited active ingredients 4 weeks after planting. 1 day after spraying leaf disks are cut from the first trifoliate leaf. Five repetitions at each rate are conducted. The leaf disks are inoculated with Phakopsora pachyrhizi (Asian soybean rust) one day after treatment. Evaluation of the leaf disks is conducted 11 to 14 days after inoculation and the activity is derived from the relation of the treated vs untreated, infested check. The rates of the active ingredients used are given in Table as g active ingredient (a.i.)/ha.

Botrytis cinerea = Botrytis cinerea (Gray Mould) liquid culture growth inhibition; assay type: cell-based
Protocol: as §1

Sclerotinia sclerotiorum = Sclerotinia sclerotiorum (White Mold) liquid culture growth inhibition; assay type: cell-based
Protocol: Mycelial fragments of the fungus prepared from a fresh liquid culture were directly mixed into nutrient broth (PDB potato dextrose broth). A DMSO solution of the test compounds was placed into a microtiter plate (96-well format) and the nutrient broth containing the fungal spores was added to it. The test plates were incubated at 24 C and the inhibition of growth was determined photometrically after 72 hrs at 620 nm

Septoria glycines = Septoria glycines (Brown Spot) liquid culture growth inhibition; assay type: cell-based
Protocol: Conidia of the fungus from cryogenic storage were directly mixed into nutrient broth (PDB potato dextrose broth). A DMSO solution of the test compounds was placed into a microtiter plate (96-well format) and the nutrient broth containing the fungal spores was added to it. The test plates were incubated at 24 C and the inhibition of growth was determined visually after 72 hrs.

Corynespora cassiicola = Corynespora cassiicola (Target Leaf Spot) liquid culture growth inhibition; assay type: cell-based
Protocol: Conidia of the fungus from cryogenic storage were directly mixed into nutrient broth (PDB potato dextrose broth). A DMSO solution of the test compounds was placed into a microtiter plate (96-well format) and the nutrient broth containing the fungal spores was added to it. The test plates were incubated at 24 C and the inhibition of growth was determined photometrically after 3-4 days at 620 nm.

**Q.** With O=C(Nc1ccccc1F)c1ccc(-c2noc(C(F)(F)F)n2)cc1 [N-(2-fluorophenyl)-4-[5-(trifluoromethyl)-1,2,4-oxadiazol-3-yl]benzamide] as the compound, how does the “Observed Activity” value ([1]; 2.22 ppm) read?
**A.** 0%

**Q.** What about the “Observed Activity” value ([1]; 6.66 ppm) of the same compound?
**A.** 0%

**Q.** And the “Observed Activity” value ([1]; 20 ppm)?
**A.** 0%

**Q.** And the “Observed Activity” value (Septoria tritici; 2.22 ppm)?
**A.** 0%

**Q.** And the “Observed Activity” value (Septoria tritici; 6.66 ppm)?
**A.** 0%

**Q.** What about the “Observed Activity” value (Septoria tritici; 20 ppm) of the same compound?
**A.** 0%

**Q.** And the “Observed Activity” value (Phakopsora pachyrhizi; 0.3 g/ha)?
**A.** 0%

**Q.** And the “Observed Activity” value (Phakopsora pachyrhizi; 0.6 g/ha)?
**A.** 35%

**Q.** With CNC(=S)c1ccc(-c2noc(C(F)(F)F)n2)cc1 [N-methyl-4-[5-(trifluoromethyl)-1,2,4-oxadiazol-3-yl]benzenecarbothioamide] as the compound, how does the “Observed Activity” value ([1]; 0.08 ppm) read?
**A.** 70%

**Q.** And the “Observed Activity” value (Septoria tritici; 2.22 ppm)?
**A.** 0%

**Q.** What about the “Observed Activity” value (Septoria tritici; 6.66 ppm) of the same compound?
**A.** 70%

**Q.** And the “Observed Activity” value (Septoria tritici; 20 ppm)?
**A.** 90%

**Q.** And the “Observed Activity” value (Botrytis cinerea; 2.22 ppm)?
**A.** 0%

**Q.** And the “Observed Activity” value (Botrytis cinerea; 6.66 ppm)?
**A.** 20%

**Q.** What about the “Observed Activity” value (Botrytis cinerea; 20 ppm) of the same compound?
**A.** 70%

**Q.** What about the “Observed Activity” value (Sclerotinia sclerotiorum; 20 ppm) of the same compound?
**A.** 20%

**Q.** What about the “Observed Activity” value (Phakopsora pachyrhizi; 0.3 g/ha) of the same compound?
**A.** 6%

**Q.** What about the “Observed Activity” value (Phakopsora pachyrhizi; 0.6 g/ha) of the same compound?
**A.** 74%

**Q.** Which results are given for CCC(=O)Oc1c(OC)ccnc1C(=O)N[C@@H](C)C(=O)O[C@@H](C)[C@@H](C)c1ccccc1C [Compound A-1.2, [(1S,2S)-1-methyl-2-(o-tolyl)propyl] (2S)-2-[(4-methoxy-3-propanoyloxy-pyridine-2-carbonyl)amino]propanoate]?
**A.** Observed Activity ([1]; 0.02 ppm): 0%; Observed Activity ([1]; 0.1 ppm): 0%; Observed Activity ([1]; 0.2 ppm): 0%; Observed Activity (Septoria tritici; 0.02 ppm): 20%; Observed Activity (Septoria tritici; 0.03 ppm): 50%; Observed Activity (Septoria tritici; 0.06 ppm): 70%; Observed Activity (Septoria tritici; 0.1 ppm): 70%; Observed Activity (Botrytis cinerea; 2 ppm): 70%; Observed Activity (Sclerotinia sclerotiorum; 0.02 ppm): 0%; Observed Activity (Sclerotinia sclerotiorum; 0.1 ppm): 0%; Observed Activity (Sclerotinia sclerotiorum; 0.2 ppm): 0%; Observed Activity (Sclerotinia sclerotiorum; 2 ppm): 70%; Observed Activity (Septoria glycines; 0.03 ppm): 20%; Observed Activity (Septoria glycines; 0.06 ppm): 20%; Observed Activity (Corynespora cassiicola; 0.06 ppm): 0%; Observed Activity (Phakopsora pachyrhizi; 0.3 g/ha): 18%; Observed Activity (Phakopsora pachyrhizi; 0.6 g/ha): 55%

**Q.** How did the “Observed Activity” value (Septoria tritici; 0.625 ppm) turn out when CCN(C)C=Nc1cc(C)c(Oc2ccccc2)cc1Cl [N′-(2-chloro-5-methyl-4-phenoxy-phenyl)-N-ethyl-N-methyl-formamidine] was run?
**A.** 20%

**Q.** And the “Observed Activity” value (Septoria glycines; 0.625 ppm)?
**A.** 70%

**Q.** What about the “Observed Activity” value (Phakopsora pachyrhizi; 1.5 g/ha) of the same compound?
**A.** 71%

**Q.** What about the “Observed Activity” value (Phakopsora pachyrhizi; 3 g/ha) of the same compound?
**A.** 71%

**Q.** What does the source list for CNC(=O)C(F)(F)c1ccc(-c2noc(C(F)(F)F)n2)cc1 [2,2-Difluoro-N-methyl-2-[4-[5-(trifluoromethyl)-1,2,4-oxadiazol-3-yl]phenyl]acetamide]?
**A.** Observed Activity ([1]; 0.08 ppm): 20%; Observed Activity (Septoria tritici; 20 ppm): 20%; Observed Activity (Phakopsora pachyrhizi; 0.3 g/ha): 0%; Observed Activity (Phakopsora pachyrhizi; 0.6 g/ha): 4%

**Q.** How did the “Observed Activity” value (Phakopsora pachyrhizi; 1.5 g/ha) turn out when CCN(C)C=Nc1cc(C)c(Oc2ccccc2F)cc1Cl [N′-[2-chloro-4-(2-fluorophenoxy)-5-methyl-phenyl]-N-ethyl-N-methyl-formamidine] was run?
**A.** 46%

**Q.** What about the “Observed Activity” value (Phakopsora pachyrhizi; 3 g/ha) of the same compound?
**A.** 80%

**Q.** Which “Observed Activity” value (Septoria glycines; 1 ppm) does the source give for N#Cc1ccc(Oc2ccc(C(F)(F)C(O)(Cn3nc[nH]c3=S)c3ccc(F)cc3F)nc2)cc1 (stereo not shown) [4-[[6-[2-(2,4-Difluorophenyl)-1,1-difluoro-2-hydroxy-3-(5-thioxo-4H-1,2,4-triazol-1-yl)propyl]-3-pyridyl]oxy]benzonitrile] here?
**A.** 50%

**Q.** What about the “Observed Activity” value (Septoria glycines; 2 ppm) of the same compound?
**A.** 70%

**Q.** And the “Observed Activity” value (Corynespora cassiicola; 0.5 ppm)?
**A.** 0%

**Q.** And the “Observed Activity” value (Corynespora cassiicola; 1 ppm)?
**A.** 0%

**Q.** What about the “Observed Activity” value (Corynespora cassiicola; 2 ppm) of the same compound?
**A.** 20%

**Q.** What about the “Observed Activity” value (Phakopsora pachyrhizi; 30 g/ha) of the same compound?
**A.** 0%

**Q.** And the “Observed Activity” value (Phakopsora pachyrhizi; 60 g/ha)?
**A.** 10%
